Reference: patent US7202268B2, “Derivatives of indole-3-carboxamide, preparation method thereof and application of same in therapeutics” (Sanofi-aventis, priority 2002, dated 2007)

Row | Compound | melting point
1 | CCC(C)(C)NC(=O)c1cn(CCCSC)c2c(Cl)c(Cl)ccc12 | 100 to 103 °C
2 | CSCCCn1cc(C(=O)NCC(C)(C)C)c2ccc(Cl)c(Cl)c21 | 170 to 173 °C
3 | CC(C)(C)CNC(=O)c1cn(CCCS(C)(=O)=O)c2c(Cl)c(Cl)ccc12 | 208 to 211 °C
